Measurements published in ChEMBL document CHEMBL4130599, “VU6010608, a Novel mGlu7 NAM from a Series of N-(2-(1H-1,2,4-Triazol-1-yl)-5-(trifluoromethoxy)phenyl)benzamides” (ACS Med Chem Lett, 2017).
Each block holds one molecule with its values, some of them ahead of it. Active and inactive are the calls of the source. The calls are words filed in the database; no cut-off is given here.

Columns and labels:
[1] = Brain to plasma partition coefficient, Kp of the compound in cannulated Sprague-Dawley rat at 0.2 to 0.25 mg/kg, iv administered as cassette dose measured after 0.25 hrs by LC-MS/MS analysis; type: ADME, organism-based; settings: brain and plasma
[2] = Protein binding in rat brain assessed as unbound fraction measured after 6 hrs by LC-MS/MS based equilibrium dialysis method; type: ADME, tissue-based
[3] = Unbound brain to plasma concentration ratio in cannulated Sprague-Dawley rat at 0.2 to 0.25 mg/kg, iv administered as cassette dose measured after 0.25 hrs by LC-MS/MS analysis; type: ADME, organism-based; settings: brain and plasma, read-out: K(p,uu,brain)
[4] = Protein binding in rat plasma assessed as unbound fraction measured after 4 hrs by LC-MS/MS based equilibrium dialysis method; type: ADME, cell-free
[5] = Protein binding in mouse plasma assessed as unbound fraction measured after 4 hrs by LC-MS/MS based equilibrium dialysis method; type: ADME, cell-free
Mus musculus = assay: Toxicity in C57/Bl6 mouse at 100 mg/kg, ip; type: organism-based; settings: in vivo
[6] = target: Metabotropic glutamate receptor 7 (Rattus norvegicus, UniProt P35400); assay: Negative allosteric modulation of rat mGlu7 expressed in HEK cells co-expressing Galpha15 assessed as reduction in L-AP4-induced intracellular calcium flux pretreated for 142 secs followed by glutamate addition and subsequent stimulation of L-AP4 for 40 secs by Fluo-4 AM dye based fluorescence assay; type: functional, cell-based
[7] = target: T1, Metabotropic glutamate receptor 4 (Homo sapiens, UniProt Q14833); assay: Agonist activity at human mGlu4 expressed in CHO cells co-expressing Gqi5 after 142 secs by Fluo-4AM dye based calcium flux assay; type: functional, cell-based
[8] = Brain to plasma partition coefficient, Kp of the compound in C57/Bl6 mouse at 100 mg/kg, ip measured after 0.5 hrs by LC-MS/MS analysis; type: ADME, organism-based; settings: brain and plasma
[9] = target: T2, Metabotropic glutamate receptor 2 (Homo sapiens, UniProt Q14416); assay: Antagonist activity at mGlu2 receptor (unknown origin); type: functional
[10] = Unbound brain to plasma concentration ratio in C57/Bl6 mouse at 30 mg/kg, ip measured after 0.5 hrs by LC-MS/MS analysis; type: ADME, organism-based; settings: brain and plasma, read-out: K(p,uu,brain)
[11] = target: T3, Metabotropic glutamate receptor 6 (Homo sapiens, UniProt O15303); assay: Agonist activity at mGlu6 receptor (unknown origin); type: functional
[12] = Drug level in C57/Bl6 mouse brain at 10 mg/kg, ip by LC-MS/MS analysis; type: ADME, organism-based; settings: in vivo, read-out: Drug uptake
[13] = Drug level in C57/Bl6 mouse plasma at 10 mg/kg, ip by LC-MS/MS analysis; type: ADME, organism-based; settings: in vivo
[14] = Volume of distribution at steady state in cannulated Sprague-Dawley rat at 0.2 to 0.25 mg/kg, iv administered as cassette dose by LC-MS/MS analysis; type: ADME, organism-based; settings: in vivo, read-out: Vdss
[15] = Half life in cannulated Sprague-Dawley rat at 0.2 to 0.25 mg/kg, iv administered as cassette dose by LC-MS/MS analysis; type: ADME, organism-based; settings: in vivo
[16] = Unbound drug level in C57/Bl6 mouse brain assessed as unbound fraction at 100 mg/kg, ip by LC-MS/MS analysis; type: ADME, organism-based; settings: in vivo
[17] = Unbound drug level in C57/Bl6 mouse brain assessed as unbound fraction at 30 mg/kg, ip by LC-MS/MS analysis; type: ADME, organism-based; settings: in vivo
[18] = Unbound drug level in C57/Bl6 mouse plasma assessed as unbound fraction at 100 mg/kg, ip by LC-MS/MS analysis; type: ADME, organism-based; settings: in vivo
[19] = target: T1, Metabotropic glutamate receptor 4; assay: Antagonist activity at human mGlu4 expressed in CHO cells co-expressing Gqi5 assessed as reduction in L-AP4-induced intracellular calcium flux pretreated for 142 secs followed by glutamate addition and subsequent stimulation of L-AP4 for 40 secs by Fluo-4 AM dye based fluorescence assay; type: functional, cell-based
[20] = target: T4, Metabotropic glutamate receptor 1 (Homo sapiens, UniProt Q13255); assay: Antagonist activity at mGlu1 receptor (unknown origin); type: functional
[21] = target: T5, Metabotropic glutamate receptor 5 (Homo sapiens, UniProt P41594); assay: Antagonist activity at mGlu5 receptor (unknown origin); type: functional
[22] = target: T5, Metabotropic glutamate receptor 5; assay: Agonist activity at mGlu5 receptor (unknown origin); type: functional
[23] = target: T3, Metabotropic glutamate receptor 6; assay: Antagonist activity at mGlu6 receptor (unknown origin); type: functional
[24] = Oral bioavailability in cannulated Sprague-Dawley rat; type: ADME, organism-based; settings: in vivo
[25] = Unbound drug level in C57/Bl6 mouse plasma assessed as unbound fraction at 30 mg/kg, ip by LC-MS/MS analysis; type: ADME, organism-based; settings: in vivo
[26] = Drug metabolism in rat hepatic S9 fraction assessed as amide hydrolysis after 60 mins in presence of NADPH/UDPGA/PAPS by LC/MS analysis; type: ADME, subcellular, Liver; settings: s9, 1 h
[27] = Drug level in C57/Bl6 mouse brain at 30 mg/kg, ip by LC-MS/MS analysis; type: ADME, organism-based; settings: in vivo, read-out: Drug uptake
[28] = target: T6, Metabotropic glutamate receptor 8 (Rattus norvegicus, UniProt P70579); assay: Antagonist activity at rat mGlu8 expressed in HEK cells co-expressing Galpha15 assessed as reduction in L-AP4-induced intracellular calcium flux pretreated for 142 secs followed by glutamate addition and subsequent stimulation of L-AP4 for 40 secs by Fluo-4 AM dye based fluorescence assay; type: functional, cell-based
[29] = target: T2, Metabotropic glutamate receptor 2; assay: Agonist activity at mGlu2 receptor (unknown origin); type: functional
[30] = target: T7, Metabotropic glutamate receptor 3 (Homo sapiens, UniProt Q14832); assay: Antagonist activity at mGlu3 receptor (unknown origin); type: functional
[31] = target: T4, Metabotropic glutamate receptor 1; assay: Agonist activity at mGlu1 receptor (unknown origin); type: functional
[32] = target: T6, Metabotropic glutamate receptor 8; assay: Agonist activity at rat mGlu8 expressed in HEK cells co-expressing Galpha15 measured after 142 secs by Fluo-4 AM dye based calcium flux assay; type: functional, cell-based
[33] = Unbound drug level in C57/Bl6 mouse plasma at 10 mg/kg, ip by LC-MS/MS analysis; type: ADME, organism-based; settings: in vivo
[34] = Unbound drug level in C57/Bl6 mouse brain assessed as unbound fraction at 10 mg/kg, ip by LC-MS/MS analysis; type: ADME, organism-based; settings: in vivo
[35] = Drug level in C57/Bl6 mouse plasma at 30 mg/kg, ip by LC-MS/MS analysis; type: ADME, organism-based; settings: in vivo
[36] = target: T7, Metabotropic glutamate receptor 3; assay: Agonist activity at mGlu3 receptor (unknown origin); type: functional
[37] = Unbound brain to plasma concentration ratio in C57/Bl6 mouse at 10 mg/kg, ip measured after 0.5 hrs by LC-MS/MS analysis; type: ADME, organism-based; settings: brain and plasma, read-out: K(p,uu,brain)
[38] = Unbound brain to plasma concentration ratio in C57/Bl6 mouse at 100 mg/kg, ip measured after 0.5 hrs by LC-MS/MS analysis; type: ADME, organism-based; settings: brain and plasma, read-out: K(p,uu,brain)
[39] = Drug level in C57/Bl6 mouse brain at 100 mg/kg, ip by LC-MS/MS analysis; type: ADME, organism-based; settings: in vivo, read-out: Drug uptake
Brain = assay: Blockade of high-frequency stimulation-induced long-term potentiation at SC-CA1 synapses in C57BL/6J mouse brain slices at 10 uM pretreated for 10 mins followed by high-frequency stimulation measured up to 60 mins; type: functional, tissue-based
[40] = Brain to plasma partition coefficient, Kp of the compound in C57/Bl6 mouse at 30 mg/kg, ip measured after 0.5 hrs by LC-MS/MS analysis; type: ADME, organism-based; settings: brain and plasma
[41] = Brain to plasma partition coefficient, Kp of the compound in C57/Bl6 mouse at 10 mg/kg, ip measured after 0.5 hrs by LC-MS/MS analysis; type: ADME, organism-based; settings: brain and plasma
[42] = Clearance in cannulated Sprague-Dawley rat at 0.2 to 0.25 mg/kg, iv administered as cassette dose by LC-MS/MS analysis; type: ADME, organism-based; settings: in vivo

Chain of Metabotropic glutamate receptor 7 (P35400 whole entry): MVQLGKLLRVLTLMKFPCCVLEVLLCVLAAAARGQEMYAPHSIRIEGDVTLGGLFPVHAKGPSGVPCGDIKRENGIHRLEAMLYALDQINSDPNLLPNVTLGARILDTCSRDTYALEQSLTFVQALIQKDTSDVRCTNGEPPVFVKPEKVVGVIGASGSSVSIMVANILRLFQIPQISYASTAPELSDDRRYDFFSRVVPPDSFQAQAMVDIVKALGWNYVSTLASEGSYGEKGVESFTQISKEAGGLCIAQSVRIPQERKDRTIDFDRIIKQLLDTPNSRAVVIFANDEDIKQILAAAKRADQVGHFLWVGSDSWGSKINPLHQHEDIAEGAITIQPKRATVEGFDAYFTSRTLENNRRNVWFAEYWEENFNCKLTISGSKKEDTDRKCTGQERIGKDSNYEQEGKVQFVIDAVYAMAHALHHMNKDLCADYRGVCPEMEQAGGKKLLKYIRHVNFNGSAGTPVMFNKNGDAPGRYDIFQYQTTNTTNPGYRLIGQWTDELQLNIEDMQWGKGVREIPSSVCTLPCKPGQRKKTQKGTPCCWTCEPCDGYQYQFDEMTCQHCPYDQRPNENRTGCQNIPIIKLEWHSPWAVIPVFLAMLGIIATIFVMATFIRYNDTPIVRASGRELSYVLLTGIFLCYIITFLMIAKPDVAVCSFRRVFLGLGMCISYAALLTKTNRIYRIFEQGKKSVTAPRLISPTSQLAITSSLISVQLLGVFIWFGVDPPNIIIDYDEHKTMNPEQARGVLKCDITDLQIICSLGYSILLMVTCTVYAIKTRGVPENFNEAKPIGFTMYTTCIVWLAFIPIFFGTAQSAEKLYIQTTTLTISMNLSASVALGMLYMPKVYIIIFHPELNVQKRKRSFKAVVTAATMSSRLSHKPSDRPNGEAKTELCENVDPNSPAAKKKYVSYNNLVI
T6 sequence (P70579 whole entry): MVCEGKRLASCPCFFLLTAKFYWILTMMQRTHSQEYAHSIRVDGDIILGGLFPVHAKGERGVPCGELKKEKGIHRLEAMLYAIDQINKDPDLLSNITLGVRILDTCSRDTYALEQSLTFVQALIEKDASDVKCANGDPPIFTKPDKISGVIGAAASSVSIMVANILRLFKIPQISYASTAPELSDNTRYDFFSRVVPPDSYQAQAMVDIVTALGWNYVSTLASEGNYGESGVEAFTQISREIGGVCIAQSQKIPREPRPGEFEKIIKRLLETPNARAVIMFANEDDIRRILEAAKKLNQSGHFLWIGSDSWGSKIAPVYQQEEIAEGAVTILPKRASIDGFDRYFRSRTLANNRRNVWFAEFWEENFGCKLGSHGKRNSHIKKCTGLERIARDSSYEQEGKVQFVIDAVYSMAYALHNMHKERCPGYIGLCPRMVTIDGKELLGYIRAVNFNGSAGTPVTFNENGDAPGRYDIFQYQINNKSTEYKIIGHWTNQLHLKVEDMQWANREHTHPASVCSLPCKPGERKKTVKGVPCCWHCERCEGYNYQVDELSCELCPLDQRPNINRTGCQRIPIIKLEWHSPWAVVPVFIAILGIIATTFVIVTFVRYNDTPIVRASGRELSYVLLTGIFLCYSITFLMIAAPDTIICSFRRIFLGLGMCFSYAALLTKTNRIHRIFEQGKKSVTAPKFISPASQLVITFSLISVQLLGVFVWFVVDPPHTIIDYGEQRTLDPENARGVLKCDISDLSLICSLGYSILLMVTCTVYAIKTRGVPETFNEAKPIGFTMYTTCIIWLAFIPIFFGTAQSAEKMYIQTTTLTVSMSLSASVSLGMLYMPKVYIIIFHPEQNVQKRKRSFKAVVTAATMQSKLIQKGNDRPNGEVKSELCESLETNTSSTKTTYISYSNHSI
T1 sequence (Q14833 whole entry): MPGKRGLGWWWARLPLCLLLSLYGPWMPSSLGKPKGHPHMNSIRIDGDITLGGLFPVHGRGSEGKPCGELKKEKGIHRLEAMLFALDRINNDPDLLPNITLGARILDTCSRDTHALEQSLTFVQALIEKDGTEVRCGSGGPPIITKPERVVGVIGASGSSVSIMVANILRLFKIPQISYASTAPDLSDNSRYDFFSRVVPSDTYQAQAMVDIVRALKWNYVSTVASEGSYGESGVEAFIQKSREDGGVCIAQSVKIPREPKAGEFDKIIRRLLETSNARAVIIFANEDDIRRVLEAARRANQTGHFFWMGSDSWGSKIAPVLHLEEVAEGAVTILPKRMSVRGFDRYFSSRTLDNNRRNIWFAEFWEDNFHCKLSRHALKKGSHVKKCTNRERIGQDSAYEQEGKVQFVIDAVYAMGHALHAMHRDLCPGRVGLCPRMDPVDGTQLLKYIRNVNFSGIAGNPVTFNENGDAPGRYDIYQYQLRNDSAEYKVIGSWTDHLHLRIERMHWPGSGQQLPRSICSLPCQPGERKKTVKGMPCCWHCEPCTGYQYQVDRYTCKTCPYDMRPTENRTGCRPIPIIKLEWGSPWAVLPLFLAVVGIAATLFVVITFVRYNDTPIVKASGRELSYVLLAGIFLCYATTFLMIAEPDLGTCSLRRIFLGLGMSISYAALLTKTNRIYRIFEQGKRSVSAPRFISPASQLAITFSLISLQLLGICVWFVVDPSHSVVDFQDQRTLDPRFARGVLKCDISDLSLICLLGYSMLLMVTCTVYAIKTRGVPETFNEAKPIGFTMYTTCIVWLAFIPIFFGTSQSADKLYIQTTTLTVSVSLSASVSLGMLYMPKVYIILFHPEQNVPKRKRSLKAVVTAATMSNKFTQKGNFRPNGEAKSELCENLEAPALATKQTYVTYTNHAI
T2 sequence (Q14416 whole entry): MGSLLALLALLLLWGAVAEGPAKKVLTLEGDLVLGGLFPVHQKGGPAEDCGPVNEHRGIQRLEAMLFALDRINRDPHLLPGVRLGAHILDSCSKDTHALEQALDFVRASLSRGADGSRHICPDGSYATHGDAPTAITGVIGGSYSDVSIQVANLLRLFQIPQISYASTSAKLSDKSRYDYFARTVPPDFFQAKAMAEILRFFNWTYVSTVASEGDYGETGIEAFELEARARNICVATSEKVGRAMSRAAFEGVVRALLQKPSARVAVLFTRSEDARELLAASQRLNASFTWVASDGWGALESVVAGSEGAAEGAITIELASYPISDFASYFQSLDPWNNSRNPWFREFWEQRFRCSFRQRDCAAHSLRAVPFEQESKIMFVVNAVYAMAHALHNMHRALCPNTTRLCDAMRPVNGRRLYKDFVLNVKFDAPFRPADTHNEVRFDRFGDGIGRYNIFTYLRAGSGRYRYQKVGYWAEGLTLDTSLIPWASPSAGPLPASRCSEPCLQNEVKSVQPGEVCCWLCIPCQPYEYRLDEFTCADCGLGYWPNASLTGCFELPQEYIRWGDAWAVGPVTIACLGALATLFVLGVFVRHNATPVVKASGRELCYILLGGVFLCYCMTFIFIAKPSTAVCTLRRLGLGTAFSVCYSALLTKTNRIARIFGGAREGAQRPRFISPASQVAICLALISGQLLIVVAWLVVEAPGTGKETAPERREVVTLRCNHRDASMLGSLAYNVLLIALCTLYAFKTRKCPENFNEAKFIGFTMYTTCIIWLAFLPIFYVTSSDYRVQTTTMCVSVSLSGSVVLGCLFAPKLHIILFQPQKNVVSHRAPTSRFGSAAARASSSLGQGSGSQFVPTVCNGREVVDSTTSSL
T3 sequence (O15303 whole entry): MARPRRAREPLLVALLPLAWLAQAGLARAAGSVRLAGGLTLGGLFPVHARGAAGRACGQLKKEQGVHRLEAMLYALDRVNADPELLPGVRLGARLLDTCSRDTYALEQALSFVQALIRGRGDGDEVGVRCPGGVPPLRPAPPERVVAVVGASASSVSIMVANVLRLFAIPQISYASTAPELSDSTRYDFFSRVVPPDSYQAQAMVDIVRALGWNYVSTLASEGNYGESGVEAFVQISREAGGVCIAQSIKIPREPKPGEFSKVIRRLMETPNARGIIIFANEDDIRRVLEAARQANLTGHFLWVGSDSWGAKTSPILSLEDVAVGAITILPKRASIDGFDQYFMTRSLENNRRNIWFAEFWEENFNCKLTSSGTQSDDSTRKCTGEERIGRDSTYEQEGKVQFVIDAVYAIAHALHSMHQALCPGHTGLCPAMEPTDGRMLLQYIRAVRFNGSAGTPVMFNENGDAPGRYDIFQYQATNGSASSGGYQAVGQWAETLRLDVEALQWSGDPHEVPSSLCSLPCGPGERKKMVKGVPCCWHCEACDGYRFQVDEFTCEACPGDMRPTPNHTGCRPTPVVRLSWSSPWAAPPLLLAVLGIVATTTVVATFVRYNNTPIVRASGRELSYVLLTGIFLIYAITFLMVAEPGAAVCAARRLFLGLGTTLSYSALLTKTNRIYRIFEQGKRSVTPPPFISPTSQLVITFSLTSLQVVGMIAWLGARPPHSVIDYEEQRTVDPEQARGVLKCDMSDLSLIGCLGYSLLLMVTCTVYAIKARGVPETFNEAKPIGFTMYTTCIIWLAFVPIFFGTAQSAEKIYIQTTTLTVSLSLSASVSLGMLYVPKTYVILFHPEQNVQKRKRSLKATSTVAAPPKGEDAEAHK

Kp at 0.25 h [1]: 4.4
fraction unbound at 6 h [2]: 0.013
Kp uu at 0.25 h [3]: 0.89
fraction unbound at 4 h [4]: 0.065
fraction unbound at 4 h [5]: 0.063
Compound: COc1cc(C(=O)Nc2cc(OC(F)(F)F)ccc2-n2cncn2)ccc1OC(C)C

Kp at 0.25 h [1]: 1.9
fraction unbound at 6 h [2]: 0.009
Kp uu at 0.25 h [3]: 1
fraction unbound at 4 h [4]: 0.017
fraction unbound at 4 h [5]: 0.019
Compound: CCCOc1ccc(C(=O)Nc2cc(OC(F)(F)F)ccc2-n2cncn2)cc1OC

IC50 [6]: 0.676 µM
Compound: CCc1nc2c(o1)CC(c1ccc(C)cc1C)CC2=O (stereo not given)
Activity (Mus musculus): Non-Toxic

Kp at 0.25 h [1]: 3.4
EC50 [7]: > 10 µM
Kp at 0.5 h [8]: 2
IC50 [9]: > 10 µM
Kp uu at 0.5 h [10]: 0.51
EC50 [11]: > 10 µM
concentration [12]: 0.38 µM
concentration [13]: 0.18 µM
Vd [14]: 6.2 L/kg
half-life [15]: 1.73 h
Drug uptake(free) [16]: 59 nM
Drug uptake(free) [17]: 36.2 nM
Cp(f) [18]: 0.137 µM
IC50 [19]: > 10 µM
IC50 [20]: > 10 µM
IC50 [21]: > 10 µM
EC50 [22]: > 10 µM
IC50 [23]: > 10 µM
bioavailability [24]: 18.9%
Cp(f) [25]: 0.0715 µM
Drug metabolism [26]: Metabolite_Detected
concentration [27]: 0.952 µM
IC50 [28]: > 10 µM
EC50 [29]: > 10 µM
IC50 [30]: > 10 µM
EC50 [31]: > 10 µM
EC50 [32]: > 10 µM
Cp(f) [33]: 0.0325 µM
Drug uptake(free) [34]: 14.3 nM
concentration [35]: 0.402 µM
EC50 [36]: > 10 µM
Kp uu at 0.5 h [37]: 0.44
Kp uu at 0.5 h [38]: 0.43
fraction unbound at 6 h [2]: 0.034
Kp uu at 0.25 h [3]: 0.48
concentration [39]: 1.55 µM
Fu ([4]; 4 h): 0.244
Kp at 0.5 h [40]: 2.36
Kp at 0.5 h [41]: 2.01
clearance [42]: 3.85 L/h/kg
fraction unbound at 4 h [5]: 0.178
Compound: COc1ccc(C(=O)Nc2cc(OC(F)(F)F)ccc2-n2cncn2)cc1OC
Activity (Mus musculus): Non-Toxic
Activity (Brain): Active

Kp at 0.25 h [1]: 3.5
fraction unbound at 6 h [2]: 0.017
Kp uu at 0.25 h [3]: 0.83
fraction unbound at 4 h [4]: 0.072
fraction unbound at 4 h [5]: 0.086
Compound: CCOc1ccc(C(=O)Nc2cc(OC(F)(F)F)ccc2-n2cncn2)cc1OC

Kp at 0.25 h [1]: 5.8
fraction unbound at 6 h [2]: 0.013
Kp uu at 0.25 h [3]: 1.5
IC50 [6]: 0.71 µM
fraction unbound at 4 h [4]: 0.052
fraction unbound at 4 h [5]: 0.039
Compound: COc1cc(C(=O)Nc2cc(OC(F)(F)F)ccc2-n2cncn2)ccc1OC1CC1

IC50 [6]: 1.4 µM
Compound: COc1cc(C(=O)Nc2cc(OC(F)(F)F)ccc2-n2cncn2)ccc1OC1CCCC1

IC50 [19]: > 30 µM
IC50 [28]: > 30 µM
IC50 [6]: 5.8 µM
Compound: COc1ccc(C(=O)Nc2cc(Cl)ccc2-n2cncn2)cc1OC
